According to patent publication US20110136897A1, “TOLL-LIKE RECEPTOR 9 AGONISTS FOR THE TREATMENT OF ANXIETY-RELATED DISORDERS AND INFLAMMATORY DISORDERS” (YISSUM RESEARCH DEVELOPMENT COMPANY OF THE HEBREW …, priority 2008, published 2011):
In the oligonucleotide strings, read from the 5' end, every base follows the letter of its sugar. An asterisk marks phosphorothioate; unmarked linkages are phosphodiester. Other units and linkages are bracketed, terminal groups are in braces. A string of capitals states the bases alone. d = 2'-deoxy (DNA)

Key:
[1] = target: T1, glucocorticoid receptor (GR) (Mus musculus, UniProt P06537); test: Glucocorticoid receptor whole cell [3H]dexamethasone binding assay, RAW264.7; assay type: cell-based; set-up: host or cells: RAW264.7 (mouse macrophage cell line)
T1 sequence (P06537 1-792): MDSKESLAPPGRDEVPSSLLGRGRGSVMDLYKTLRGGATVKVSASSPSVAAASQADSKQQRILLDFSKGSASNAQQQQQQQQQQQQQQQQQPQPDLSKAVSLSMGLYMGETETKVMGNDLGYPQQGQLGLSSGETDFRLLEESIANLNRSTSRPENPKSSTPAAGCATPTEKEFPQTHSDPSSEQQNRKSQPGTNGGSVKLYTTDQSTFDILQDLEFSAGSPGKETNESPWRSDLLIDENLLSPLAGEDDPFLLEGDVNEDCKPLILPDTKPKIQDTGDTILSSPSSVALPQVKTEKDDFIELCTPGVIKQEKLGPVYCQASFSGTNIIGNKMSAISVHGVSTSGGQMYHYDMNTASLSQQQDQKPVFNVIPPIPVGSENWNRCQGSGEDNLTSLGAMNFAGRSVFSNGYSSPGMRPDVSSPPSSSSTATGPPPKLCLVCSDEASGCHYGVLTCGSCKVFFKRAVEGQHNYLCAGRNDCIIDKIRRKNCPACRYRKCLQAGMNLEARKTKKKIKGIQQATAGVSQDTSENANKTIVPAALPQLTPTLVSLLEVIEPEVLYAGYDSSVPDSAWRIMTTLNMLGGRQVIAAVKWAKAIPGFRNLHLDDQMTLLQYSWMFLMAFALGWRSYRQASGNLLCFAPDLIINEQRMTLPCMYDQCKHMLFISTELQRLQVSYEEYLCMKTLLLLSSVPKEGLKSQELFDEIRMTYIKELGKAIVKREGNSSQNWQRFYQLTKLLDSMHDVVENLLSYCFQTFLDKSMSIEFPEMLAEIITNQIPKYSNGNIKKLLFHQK
Protocol: Glucocorticoid receptor assay: A whole cell binding assay was used to determine GR number and affinity. 0.7×10^6 RAW264.7 cells in 2 ml medium were grown in 24-wells plates until 80% confluence was obtained. After the appropriate treatment, the medium was replaced with a saturating concentration of 50 nM [^3H]dexamethasone (85.0 Ci/mmol) (Amersham Biosciences, NJ, USA) in 5 μM unlabeled dexamethasone (Sigma, Israel). After incubation for 2 hours at 37° C., cells were washed 6 times with cold PBS and lysed in 1M NaOH. Lysates were harvested and counted in a beta-spectrometer.
Since HSP90 modulates GR activity by increasing its affinity to glucocorticoids (GCs) it was wondered whether such an effect could be obtained by activating TLR9. In order to challenge that hypothesis, RAW264.7 cells were incubated with varying concentrations of hEN101 for 24 hours and the medium was subsequently replaced with one containing different concentration of 50 nM [^3H]dexamethasone and 5 μM unlabeled dexamethasone. After a 2 hour incubation, radioactivity was measured in a beta-spectrometer.

RAW264.7 cells [2] = test: HSP90 and GR immunostaining and colocalization, confocal microscopy; assay type: cell-based, mouse; details: 24 h, 1-10 μM
Protocol: Immunohistochemistry: Cells were fixed with 4% PFA in phosphate-buffered saline (PBS) for 15 minutes at room temperature (RT), washed and transferred to 100% MetOH at −20° C. for 5 minutes. Afterwards, cells were washed twice with a blocking medium containing PBS, 1% bovine serum albumin (BSA) and 0.01% NaN3 and then were incubated for 1 hour at RT with anti-HSP90 and anti-GR antibodies (1:50) (Santa Cruz Biotechnology, CA). After incubation, cells were washed twice in blocking medium and incubated with 1:100 secondary antibodies (Jackson Immunoresearch Laboratories, PA). Slides were mounted onto glass slides and visualized by confocal microscopy.

RAW264.7 cells [3] = test: Nitric oxide (NO) production, Griess reaction; assay type: cell-based, mouse; details: for effect on 10 μM mEN101-driven increases in NO: added with 10 μM mEN101
Protocol: The mouse macrophage cell line RAW 264.7 (ATCC, Bethesda, Md.) was cultured in Dulbecco's modified Eagle's medium (DMEM) (Biological Industries) supplemented with 10% heat-inactivated fetal bovine serum (Biological Industries, Israel), 100 μg/ml streptomycin, 100 U/ml penicillin (Sigma) and 2 mM 1-glutamine (Biological Industries) at 37° C. in a humidified atmosphere with 5% CO2.
(§1) Determination of nitric oxide (NO) production: Nitrite concentration in the medium of cultured cells was measured as an indicator of NO production according to the Griess reaction. 1×10^5 mouse RAW264.7 cells were grown in 0.5 ml medium in 48-wells plate until 80% confluence was obtained. […] (1% sulfanilamide, 0.1% naphthylethylenediamine dihydrochloride, 5% H3PO4). Absorbance was read at 540 nm after 10 min using SPECTRAFluor Plus spectrophotometer (TECAN, UK).
To further characterize the TLR9 activating features of mEN101, mEN101 was applied to RAW264.7 cells (n=4 repeats) for 24 hours and the subsequent production of inflammatory markers was quantified. […] Addition of chloroquine (CQ), a weak base that perturbs endosomal pH and thus disturbs endosomal maturation, as well as the specific TLR9 inhibiting oligonucleotides ODN2088 and ODN TTAGGG (17), all blocked the 10 μM mEN101-driven increases in NO (p<0.015) (FIG. 2A). Thus, both gain and loss of function tests validated the nature of mEN101 as an endosomally active TLR9 activator, albeit a weak one.

RAW264.7 cells [4] = test: Nitric oxide (NO) production, Griess reaction; assay type: cell-based, mouse; details: with 1 μM mEN101
splenocytes = test: IFN-γ induction in splenocytes (ELISA); assay type: cell-based, mouse; details: mEN101 even at 10 μM doses
Protocol: Cell cultures: Spleens were removed from 5-6 week old FVB/N mice (Harlan Laboratories, Israel) and mashed until a homogeneous cell suspension was obtained. The suspension was centrifuged in a LSM Lymphocyte Separation Medium (MP Biomedicals, Solon, Ohio) and the mononuclear cell layer was separated. Cells were adjusted to a 5×10^6 cells/ml and cultured in RPMI 1640 (Biological Industries, Israel) supplemented with 5% FCS, […] L-glut, 100 μg/ml streptomycin, 100 U/ml penicillin and 5×10^−5 2-mercaptoethanol (Sigma, Israel).
ELISA: Serum was extracted by centrifuging blood in heparin-containing Microtainer LH vials (BD, Franklin Lakes, N.J.) for 10 minutes at 3000 g. Serum and cell-culture supernatants were analyzed for IL-1β, IL-6, TNF-α and IFN-γ using respective ELISA Ready-SET-Go (eBioscience, San Diego, Calif.) kits as instructed. Intensities were read using a Tecan SPECTRAFluor Plus spectrophotometer (Mannedorf, Switzerland).

RAW264.7 cells [5] = test: LPS-induced NO production with or without corticosterone after ODN1826 pre-incubation; assay type: cell-based, mouse; details: 10 or 50 mM corticosterone, LPS 1 μg/ml, 24 hours
Protocol: as §1, with “nitric oxygen” for “nitric oxide”, “production: The nitrite” for “production: Nitrite”, “medium” for “medium of cultured cells”, “1×10^5” for “1×10^5 mouse”, “10 minutes” for “10 min”
In order to study the functional effects of TLR9 activation on GR signaling, RAW264.7 cells were incubated with varying concentrations of ODN1826 (SEQ ID NO: 2) for 24 hours and the medium was replaced with one containing LPS (1 μg/ml) with or without […] corticosterone (CORT) for an additional 24 hours. As expected, CORT blocked lipopolysaccharide (LPS)-induced NO production.

RAW264.7 cells [6] = test: RT-PCR of inflammatory genes in RAW264.7 cells (Table 2); assay type: cell-based, mouse; details: 1 ug/ml
Protocol: Real-time PCR (RT-PCR): Brains were dissected and tissues stored frozen at −70° C. until use. Hippocampal RNA was extracted using the RNeasy Tissue Mini Kit (Qiagen, Germany). Total RNA was reverse-transcribed (200 ng) using Impromp-II reverse transcriptase (Promega, Madison, Wis.) as instructed. RT-PCR was performed using Power SYBR®Green PCR Master Mix (Applied Biosystems, UK) in a 7900 HT Sequence Detection System (Applied Biosystems, Foster City, Calif.). Quantification was assessed at the logarithmic phase of the PCR reaction. The PCR annealing temperature was 60° C. for all primer pairs. GAPDH was used as a house-keeping gene.
Shown are fold differences in RT-PCR products of RAW264.7 cells incubated with the noted doses of mEN101 or ODN1826. Note that ODN1826 affects IL1α, -1β, -6, -10, -12 and ICAM-1 gene expression at concentrations as low as 10 nM, whereas considerably higher doses of mEN101 are needed to attain similar effects. Nevertheless, mEN101 affects inflammatory gene expression even at 10 nM. 1 μg/ml LPS was used as positive control. (n=3, p<0.05 Mann-Whitney U-test compared to untreated controls, for all the data shown).

5′-CTGCCACGTTCTCCTGCA*C*C*-3′ [hEN101]
DEX (GR) Bmax, Scatchard plot analysis ([1]; 10 μM per FIG. 10D legend): increased | concentration from which effects on [3H]dexamethasone incorporation are detectable ([1]; 24 hours pre-incubation): ≥ 1 µM | whole cell [3H]dexamethasone incorporation / binding ([1]; 24 hours pre-incubation, dose-dependent): increased [^3H]dexamethasone incorporation | GR level (RAW264.7 cells [2]): not GR | colocalization of HSP90 and GR signals (RAW264.7 cells [2]): increased colocalization of HSP90 and GR signals | HSP90 level (RAW264.7 cells [2]; dose dependent): upregulated HSP90

5′-TTTAGGGTTAGGGTTAGGGTTAGGG-3′ (dT*dT*dT*dA*dG*dG*dG*dT*dT*dA*dG*dG*dG*dT*dT*dA*dG*dG*dG*dT*dT*dA*dG*dG*dG) [ODN TTAGGG]
effect on 10 μM mEN101-driven increases in NO (RAW264.7 cells [3]): blocked | effect on mEN101 effects on NO production (FIG. 2A legend) (RAW264.7 cells [4]): abolished

5′-ggGGTCAACGTTGAgggggg (GGGGTCAACGTTGAGGGGGG; listed as DNA, chemistry not given here) [ODN1585, type-A CpG ODN, Invivogen]
induction of IFN-γ (splenocytes): stronger for ODN1585 than ODN1826 | NO production at doses parallel to ODN1826 (10-100 nM) (RAW264.7 cells [3]; 24 hours): totally ineffective | dose needed to initiate detectable NO overproduction (RAW264.7 cells [3]; 24 hours): 10 µM

C[C@]12C[C@H](O)[C@H]3[C@@H](CCC4=CC(=O)CC[C@@]43C)[C@@H]1CC[C@@H]2C(=O)CO [CORT, corticosterone]
LPS-induced NO production (RAW264.7 cells [5]): blocked

CCN(CC)CCCC(C)Nc1ccnc2cc(Cl)ccc12 (centres unmarked) [chloroquine]
effect on 10 μM mEN101-driven increases in NO (RAW264.7 cells [3]): blocked | effect on mEN101 effects on NO production (FIG. 2A legend) (RAW264.7 cells [4]): abolished

lipopolysaccharide [LPS, reference compound]
ICAM-1 RT-PCR product (RAW264.7 cells [6]): −3.74 log2 from NT | IL1a RT-PCR product (RAW264.7 cells [6]): 8.86 log2 from NT | IL1b RT-PCR product (RAW264.7 cells [6]): 5.42 log2 from NT | IL6 RT-PCR product (RAW264.7 cells [6]): 3.81 log2 from NT | IL10 RT-PCR product (RAW264.7 cells [6]): 3.20 log2 from NT | IL12 RT-PCR product (RAW264.7 cells [6]): 8.75 log2 from NT
